According to the NIST ThermoML archive (doi:10.1021/je700699u):
± gives the expanded uncertainty stated by the source.

Assay: cn = amount concentration of the nth substance listed, in mol/dm3
Settings: 101 kPa, Liquid

N[C@@H](CC(=O)O)C(=O)[O-].[K+] [potassium (S)-2-amino-3-carboxypropanoate] + O
Settings | mass density, 298.15 K [kg/m3] | mass density, 303.15 K [kg/m3] | mass density, 313.15 K [kg/m3] | mass density, 323.15 K [kg/m3] | mass density, 333.15 K [kg/m3] | viscosity, 298.15 K [mPa·s] | viscosity, 303.15 K [mPa·s] | viscosity, 313.15 K [mPa·s] | viscosity, 323.15 K [mPa·s] | viscosity, 333.15 K [mPa·s]
c1 = 0.255 | 1029 ± 2 | 1027 ± 2 | 1024 ± 2 | 1020 ± 2 | 1015 ± 2 | 0.992 ± 0.032 | 0.887 ± 0.029 | 0.725 ± 0.024 | 0.613 ± 0.021 | 0.525 ± 0.019
c1 = 0.47 | 1059 ± 2 | 1057 ± 2 | 1053 ± 2 | 1049 ± 2 | 1045 ± 2 | 1.104 ± 0.035 | 0.998 ± 0.032 | 0.816 ± 0.027 | 0.693 ± 0.023 | 0.593 ± 0.021
c1 = 0.708 | 1089 ± 3 | 1087 ± 3 | 1083 ± 3 | 1079 ± 3 | 1074 ± 3 | 1.239 ± 0.039 | 1.115 ± 0.035 | 0.914 ± 0.03 | 0.771 ± 0.026 | 0.663 ± 0.023
c1 = 0.979 | 1119 ± 3 | 1117 ± 3 | 1113 ± 3 | 1109 ± 3 | 1105 ± 3 | 1.419 ± 0.044 | 1.269 ± 0.039 | 1.041 ± 0.033 | 0.865 ± 0.028 | 0.743 ± 0.025
c1 = 1.208 | 1147 ± 4 | 1145 ± 4 | 1141 ± 4 | 1137 ± 4 | 1133 ± 4 | 1.615 ± 0.049 | 1.45 ± 0.044 | 1.185 ± 0.037 | 0.994 ± 0.032 | 0.836 ± 0.027
c1 = 1.449 | 1176 ± 4 | 1173 ± 4 | 1169 ± 4 | 1166 ± 4 | 1162 ± 4 | 1.856 ± 0.056 | 1.667 ± 0.051 | 1.353 ± 0.042 | 1.142 ± 0.036 | 0.957 ± 0.031

N[C@@H](Cc1ccccc1)C(=O)[O-].[K+] [potassium L-phenylalaninate] + O
Settings | mass density, 298.15 K [kg/m3] | mass density, 303.15 K [kg/m3] | mass density, 313.15 K [kg/m3] | mass density, 323.15 K [kg/m3] | mass density, 333.15 K [kg/m3] | viscosity, 298.15 K [mPa·s] | viscosity, 303.15 K [mPa·s] | viscosity, 313.15 K [mPa·s] | viscosity, 323.15 K [mPa·s] | viscosity, 333.15 K [mPa·s]
c1 = 0.25 | 1015 ± 2 | 1014 ± 2 | 1010 ± 2 | 1005 ± 1 | 1001 ± 1 | 1.059 ± 0.034 | 0.938 ± 0.03 | 0.769 ± 0.025 | 0.641 ± 0.022 | 0.549 ± 0.019
c1 = 0.496 | 1032 ± 2 | 1031 ± 2 | 1027 ± 2 | 1022 ± 2 | 1017 ± 2 | 1.224 ± 0.038 | 1.092 ± 0.034 | 0.884 ± 0.029 | 0.738 ± 0.025 | 0.631 ± 0.022
c1 = 0.745 | 1051 ± 2 | 1049 ± 2 | 1044 ± 2 | 1039 ± 2 | 1034 ± 2 | – | – | – | – | –
c1 = 0.746 | – | – | – | – | – | 1.441 ± 0.044 | 1.279 ± 0.04 | 1.032 ± 0.033 | 0.852 ± 0.028 | 0.72 ± 0.024
c1 = 0.996 | 1067 ± 2 | 1065 ± 2 | 1060 ± 2 | 1055 ± 2 | 1049 ± 2 | 1.695 ± 0.051 | 1.495 ± 0.046 | 1.194 ± 0.037 | 0.98 ± 0.031 | 0.823 ± 0.027
c1 = 1.226 | 1084 ± 3 | 1081 ± 3 | 1077 ± 3 | 1071 ± 3 | 1066 ± 2 | – | – | – | – | –
c1 = 1.227 | – | – | – | – | – | 2.03 ± 0.061 | 1.782 ± 0.054 | 1.41 ± 0.043 | 1.15 ± 0.036 | 0.963 ± 0.031
c1 = 1.453 | 1100 ± 3 | 1097 ± 3 | 1092 ± 3 | 1087 ± 3 | 1081 ± 3 | 2.483 ± 0.073 | 2.169 ± 0.064 | 1.702 ± 0.052 | 1.377 ± 0.043 | 1.139 ± 0.036
